Results: patent US8198273B2, “Compounds and methods for kinase modulation, and indications therefor” (Plexxikon Inc., priority 2009, dated 2012)

How the values were obtained:
[1] = system: A375 melanoma cells (B-Raf V600E); assay: A375 cell growth inhibition (ATPlite); format: cell-based; conditions: Homo sapiens, A-375, 72 h; A375, 3 days incubation
Outline: (§1)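 Cells plated overnight, then exposed 3 days at 37° C to 8-point 1:3 compound dilutions topping at 10 μM final. Viability read as ATPlite luminescence, proportional to cell number; IC50 from luminescence versus concentration.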

[2] = system: COLO205 colon adenocarcinoma cells (B-Raf V600E); assay: COLO205 cell growth inhibition (ATPlite); format: cell-based; conditions: Homo sapiens, COLO 205, 72 h; COLO205, 3 days incubation
Outline: as §1

CYP2D6 = CYP2D6 (Homo sapiens, UniProt P10635); assay: CYP2D6 inhibition (fluorescent substrate); format: in vitro ADME; conditions: CYP2D6, AMMC substrate; read-out: Cyp IC50 2D6
Sequence of CYP2D6 (P10635 whole entry): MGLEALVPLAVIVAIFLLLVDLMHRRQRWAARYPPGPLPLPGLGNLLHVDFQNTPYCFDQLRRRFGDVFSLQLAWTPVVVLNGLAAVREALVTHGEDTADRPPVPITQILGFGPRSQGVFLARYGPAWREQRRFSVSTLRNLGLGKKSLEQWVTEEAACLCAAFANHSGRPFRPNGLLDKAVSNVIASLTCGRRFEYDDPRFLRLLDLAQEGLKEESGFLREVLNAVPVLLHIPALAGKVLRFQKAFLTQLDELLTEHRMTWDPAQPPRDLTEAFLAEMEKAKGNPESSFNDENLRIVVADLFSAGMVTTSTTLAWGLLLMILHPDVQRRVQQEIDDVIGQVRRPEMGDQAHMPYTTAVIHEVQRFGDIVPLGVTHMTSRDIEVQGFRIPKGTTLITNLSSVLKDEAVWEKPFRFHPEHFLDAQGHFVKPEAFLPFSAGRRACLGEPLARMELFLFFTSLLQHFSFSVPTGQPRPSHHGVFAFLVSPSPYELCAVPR
Outline: (§2)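 Human CYP activity was followed by the fluorescence of the metabolized product of a known substrate, which falls as metabolism is inhibited. Compounds from 100 mM DMSO stocks were serially diluted 1:1 over 10 points in co-factor mix and preincubated 10 min at 37 °C. IC50 was fitted from signal versus concentration.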

CYP2C9 = CYP2C9 (Homo sapiens, UniProt P11712); assay: CYP2C9 inhibition (fluorescent substrate); format: in vitro ADME; conditions: CYP2C9, MFC substrate; read-out: Cyp IC50 2C9
Sequence of CYP2C9 (P11712 whole entry): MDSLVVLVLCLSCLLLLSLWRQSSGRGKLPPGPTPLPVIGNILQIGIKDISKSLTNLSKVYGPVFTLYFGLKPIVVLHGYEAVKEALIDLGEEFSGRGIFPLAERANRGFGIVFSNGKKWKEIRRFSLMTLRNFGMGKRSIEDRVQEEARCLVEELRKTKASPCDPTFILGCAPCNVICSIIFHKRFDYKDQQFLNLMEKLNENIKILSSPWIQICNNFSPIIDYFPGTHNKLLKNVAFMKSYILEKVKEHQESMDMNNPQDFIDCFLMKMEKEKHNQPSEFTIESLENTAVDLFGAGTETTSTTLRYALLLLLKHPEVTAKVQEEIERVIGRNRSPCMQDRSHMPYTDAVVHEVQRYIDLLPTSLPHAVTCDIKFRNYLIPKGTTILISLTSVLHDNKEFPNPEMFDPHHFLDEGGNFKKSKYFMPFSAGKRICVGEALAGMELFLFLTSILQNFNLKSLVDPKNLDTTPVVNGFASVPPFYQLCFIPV
Outline: as §2

IC50 [1]: < 0.1 µM
IC50 [2]: < 0.1 µM
IC50 (CYP2D6): > 10 µM
IC50 (CYP2C9): 5 to 10 µM
Structure (SMILES): CCCS(=O)(=O)Nc1ccc(F)c(C(=O)c2c[nH]c3ncc(-c4ccc(N(C)C)nc4)cc23)c1F [P-2229, Propane-1-sulfonic acid {3-[5-(6-dimethylamino-pyridin-3-yl)-1H-pyrrolo[2,3-b]pyridine-3-carbonyl]-2,4-difluoro-phenyl}-amide]
